Source: patent US11207379B2, “Peptides with anti-cancer activity” (IDP DISCOVERY PHARMA, S.L., priority 2016, dated 2021)
Like-named read-outs stand apart in the source and are kept apart here. Bridge positions count the residues as written; N and C are the ends. Square brackets hold non-standard residues; d marks the D form. Ends that are not written are not given here. Peptide text beside a SMILES is read from it. R8 = C=CCCCCCC[C@@](C)(N)C(=O)O; S5 = C=CCCC[C@](C)(N)C(=O)O

Experiments:
Experiment in all cases: Viability assay (MTT, Alamar Blue, hexosaminidase), 72 h
Format in all cases: cell-based
[1] = target: MM.1S, B Lymphoblast (multiple myeloma)
Procedure: MM.1S, B Lymphoblast (multiple myeloma), ATCC: CRL-2974
(§1) Cell lines A549, MCF-7 and RAMOS were cultured in incubator under CO2 (6%) at 37° C. in DMEM high glucose (Dulbecco's Modified Eagle Solution, Gibco-BRL 31966-21) medium with 10% fetal bovine serum inactivated (FBS) (Gibco-BRL 10106-169). Cell lines HL-60 and MM.1S were cultured in incubator at 37° C. in RPMI-1640 (Sigma R8758) medium with 10% of fetal bovine serum inactivated (FBS) and 2 mM glutamine (Sigma G7513). Cell lines BJ were cultured in incubator under CO2 (6%) at 37° C. in Eagle's Minimum Essential Medium (Sigma, M-2279) with 10% fetal bovine serum inactivated (FBS) (Gibco-BRL 10106-169).
(§2) During the amplification step and the assays adherent cells were rinsed with DPBS (Dulbecco's Phosphate Buffered Saline, Sigma D1283) three times and afterward treated for 5 minutes with trypsin ([…]) (Gibco-BRL, 15400054) in solution of DPBS at 37° C., and, once detached, transferred in the culturing medium. No-adherent cells were centrifuged and transferred in the culturing medium. Cells were counted in a Neubauer chamber after labelling with Tripan-Blue.
(§3) A549, MCF-7 and JB cells were seeded at a density of 5000 cells/well and HL-60, MM.1S and Ramos at 10000 cells/well in 100 μl of medium in 96 well plates. After 24 h, the compounds to be tested were added to calculate the dose/response curve at the starting concentration of 100 μM with serial dilutions (1:1). Controls are the untreated cells. Each experiment was performed in triplicate.
(§4) Cells were incubated during 72 h in incubator under CO2 atmosphere at 37° C. Cell viability was measured by means of MTT (3-(4,5-dimethylthiazol-2-yl)-2.5-diphenyltetrazolium bromide) assay, Alamar Blue® (Biosource DAL1100) and Hexosaminidase activity test, consecutively, following manufacturer instructions.
(§5) MTT: 1. Stock solution of MTT (475989 Calbiochem) was 5 mg/ml in PBS 1×. As negative control (experiment noise) 3 wells were treated with 20 μl/well of a solution of SDS 10% in H2O. The same control was used for Alamar Blue/Hexosaminidase. 10 μl/well of MTT solution were added and the plate was incubated for 3-4 hr. The medium was discarded and 100 μl of extracting buffer (PBS 1×, 15% SDS, 50% […] N,N-Dimethylformamide, pH 4.7) were added to each well. Plates were incubated for 16 h at room temperature under orbital shaking. Absorbance at 570 nm was finally measured.
(§6) Alamar Blue: 10 μl Alamar Blue solution was added to each well and the plates were incubated for […] in the incubator. Fluorescence ratio at 535/590 (excitation/emission) was measured in Cytofluor (Millipore) fluorimeter. Blank control was determined by lysis of untreated cells with con 2% of Triton X100, right before adding Alamar Blue solution.
(§7) Hexosaminidase activity test: after Alamar Blue lecture, medium was discarded and plates were rinsed once with PBS. 60 μl hexosaminidase substrate (p-nitrophenol-N-acetyl-beta-D-glucosamide 7.5 mM [Sigma N-9376], sodium citrate 0.1 M, pH 5.0, 0.25% Triton X-100) was added to each well and the plates were incubated at 37° C. for 2-5 h, according to the cell type (hexosaminidase activity changes according to the cell type). […] Blank control was the same as described before.
(§8) Data analysis was performed calculating the percentage of cell viability normalized vs. the values of negative control, which was considered equal to 100%. The dose/response curve was fitted through the sigmoidal equation dose-response (variable slope) and the EC50 values were calculated as follow: Y=Bottom+(Top−Bottom)/(1+10^{[(Log EC50−X)*HillSlope]},

[2] = target: HL-60, promyeloblast (acute myelocytic leukemia, AML)
Procedure: HL-60, promyeloblast (acute myelocytic leukemia, AML), ECACC: 98070106
as §1, §2, §3, §4, §5, §6, §7, §8

[3] = target: A549, epithelial (lung cancer)
Procedure: A549, epithelial (lung cancer), ATCC:CCL-185
as §1, §2, §3, §4, §5, §6, §7, §8

[4] = target: RAMOS, B lymphocyte (Burkitt's Lymphoma)
Procedure: RAMOS, B lymphocyte (Burkitt's Lymphoma), ATCC: CRL-1596
as §1, §2, §3, §4, §5, §6, §7, §8

[5] = target: MCF-7, epithelial (breast cancer)
Procedure: MCF-7, epithelial (breast cancer), ECACC: 86012803
as §1, §2, §3, §4, §5, §6, §7, §8

| Compound | EC50 [1] [µM] | EC50 [2] [µM] | EC50 [3] [µM] | EC50 [4] [µM] | EC50 [5] [µM] | EC50 ([1]; MM.1S cells, read-out: EC50) [µM] | EC50 ([2]; HL-60 cells, read-out: EC50) [µM] | EC50 ([3]; A549 cells, read-out: EC50) [µM] | EC50 ([4]; Ramos cells, read-out: EC50) [µM] | EC50 ([5]; MCF7 cells, read-out: EC50) [µM] |
| --- | --- | --- | --- | --- | --- | --- | --- | --- | --- | --- |
| CC[C@H](C)[C@@H]1NC(=O)[C@H](Cc2ccc(O)cc2)NC(=O)[C@H](C)NC(=O)[C@H]([C@@H](C)O)NC(=O)[C@H](C)NC(=O)[C@H](CCCCN)NC(=O)[C@](C)(NC(=O)[C@H](CC(C)C)NC(=O)[C@@H](NC(=O)[C@@H](NC(=O)[C@@H](NC(=O)[C@H](CCCCN)NC(=O)[C@@H]2CCCN2C(=O)[C@H](C)N)C(C)C)C(C)C)[C@@H](C)CC)CCCCCC/C=C\CCC[C@@](C)(C(=O)N[C@@H](CO)C(N)=O)NC1=O [IDP-S18, APKVVILXKATAYIXS] (H-APKVVIL[R8]KATAYI[S5]S-NH2; staple (Z) 8-15; N-terminus and C-terminus assumed) | > 100 | > 100 | > 100 | > 100 | > 100 |  |  |  |  |  |
| APKXVIFKKAXAYILS-OH [IDP-S14] |  |  |  |  |  | 6.6 ± 0.9 | 7.8 ± 0.4 | 9.1 ± 0.8 | 55 |  |
| CC(C)C[C@@H]1NC(=O)[C@H](C)NC(=O)[C@H](Cc2ccccc2)NC(=O)[C@H](Cc2ccccc2)NC(=O)[C@](C)(NC(=O)[C@H](CCCNC(=N)N)NC(=O)[C@H](CCCCN)NC(=O)[C@H](CC(C)C)NC(=O)[C@H](CCC(=O)O)NC(=O)[C@@H](N)CC(N)=O)CCCCCC/C=C\CCC[C@@](C)(C(N)=O)NC(=O)[C@H](CC(=O)O)NC(=O)[C@H](CCCNC(=N)N)NC1=O [IDP-S13, NELKRXFFALRDX-NH2] (H-NELKR[R8]FFALRD[S5]-NH2; staple (Z) 6-13; N-terminus assumed) |  |  |  |  |  | > 100 | > 100 |  | > 100 | > 100 |
| CCc1ccc(/C=C2/SC(=S)NC2=O)cc1 [10058-F4, reference compound] |  |  |  |  |  | > 100 | 54 ± 2 | > 100 | ~57 | ~52 |
| RQRRNELKRSFFALRDQ [IDP-L11, RQRRNELKRSFFALRDQ] | > 100 | > 100 |  | > 100 | > 100 |  |  |  |  |  |
| RQRRNELKRXFFALRDX-NH2 [IDP-S12] |  |  |  |  |  | 22 ± 2 | 23 ± 1 | 50 | 52 ± 2 | 42 ± 2 |
| CC(C)C[C@@H]1NC(=O)[C@H](C)NC(=O)[C@H](C)NC(=O)[C@H](Cc2ccccc2)NC(=O)[C@](C)(NC(=O)[C@H](CCCNC(=N)N)NC(=O)[C@H](CCCCN)NC(=O)[C@H](CC(C)C)NC(=O)[C@H](CCC(=O)O)NC(=O)[C@H](CC(N)=O)NC(=O)[C@H](CCCNC(=N)N)NC(=O)[C@H](CCCNC(=N)N)NC(=O)[C@H](CCC(N)=O)NC(=O)[C@@H](N)CCCNC(=N)N)CCCCCC/C=C\CCC[C@@](C)(C(N)=O)NC(=O)[C@H](CC(=O)O)NC(=O)[C@H](CCCNC(=N)N)NC1=O [IDP-S04, RQRRNELKRXFAALRDX-H2] (H-RQRRNELKR[R8]FAALRD[S5]-NH2; staple (Z) 10-17; N-terminus assumed) |  |  |  |  |  | 19 ± 1 | ~24 |  | ~64 | ~60 |
| CC[C@H](C)[C@H](NC(=O)[C@@H](NC(=O)[C@@H](NC(=O)[C@H](CCCCN)NC(=O)[C@@H]1CCCN1C(=O)[C@H](C)N)C(C)C)C(C)C)C(=O)N[C@]1(C)CCCCCC/C=C\CCC[C@@](C)(C(=O)N[C@@H](CC(C)C)C(=O)N[C@@H](CO)C(N)=O)NC(=O)[C@H](Cc2ccc(O)cc2)NC(=O)[C@H](C)NC(=O)[C@H]([C@@H](C)O)NC(=O)[C@H](C)NC(=O)[C@H](CCCCN)NC(=O)[C@H](CCCCN)NC1=O [IDP-S17, APKVVIXKKATAYXLS] (H-APKVVI[R8]KKATAY[S5]LS-NH2; staple (Z) 7-14; N-terminus and C-terminus assumed) | > 100 | > 100 | > 100 | > 100 | > 100 |  |  |  |  |  |
| QRRNXLKRAFAXLRD-OH [IDP-S312] |  |  |  |  |  | ~25 |  |  |  |  |
| RQRRNXLKRAFAXLRD-OH [IDP-S311] |  |  |  |  |  | ~15 |  |  |  |  |
| CC[C@H](C)[C@H](NC(=O)[C@]1(C)CCC/C=C\CCCCCC[C@@](C)(NC(=O)[C@@H](NC(=O)[C@@H](NC(=O)[C@H](CCCCN)NC(=O)[C@@H]2CCCN2C(=O)[C@H](C)N)C(C)C)C(C)C)C(=O)N[C@@H](CC(C)C)C(=O)N[C@@H](CCCCN)C(=O)N[C@@H](CCCCN)C(=O)N[C@@H](C)C(=O)N[C@@H]([C@@H](C)O)C(=O)N[C@@H](C)C(=O)N1)C(=O)N[C@@H](CC(C)C)C(=O)N[C@@H](CO)C(N)=O [IDP-S22, APKVVXLKKATAXILS] (H-APKVV[R8]LKKATA[S5]ILS-NH2; staple (Z) 6-13; N-terminus and C-terminus assumed) | > 100 | > 100 | > 100 | > 100 | > 100 |  |  |  |  |  |
